In patent US12642270B2, “Substituted thiophene carboxamides, thiophene carboxylic acids and derivatives thereof” (Bayer Aktiengesellschaft, priority 2019, dated 2026):

Assay: Log P by HPLC on reversed phase columns (EEC directive 79/831 Annex V.A8)
Type: physicochemical
In short: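 Values come from retention times calibrated against alkan-2-ones (3–16 carbons) by linear interpolation, using reversed-phase LC-UV per EEC directive 79/831 Annex V.A8. Acetonitrile gradient 10–95% with 0.1% formic acid [a], 0.001 M ammonium acetate [b] or 0.1% phosphoric acid [c]; several values within one method separated by "+".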

[1] = method [a]: LC-UV, acidic range, 0.1% formic acid in water and acetonitrile
[2] = method marker [a] given with each value, Table 1.1, compounds of formula (I)
[3] = method [a], compounds of formula (I), Table 1.1
[4] = LogP method [a], compounds of formula (I), Table 1.1

In the case of `O=C(CNC(=O)c1sc(Br)c(Br)c1F)OCC1CC1` [1.0859], the LogP (method [a]) is reported as 3.39^[a].

For `CCOC(=O)c1sc(Br)c(I)c1C` [II.031], the LogP [1] was 5.03^[a].

For `O=C(N[C@H]1CCCNC1=O)c1sc(Cl)c(Cl)c1Br` [I.0944], the LogP [1] was 2.30^[a].

With `CCOC(=O)C(CCSC)NC(=O)c1sc(F)c(Br)c1C` (stereo not drawn) [1.0320] the LogP (method marked [a]) was 3.67^[a].

With `Cc1c(C(=O)O)sc(I)c1Br` [II.017] the LogP [1] was 2.86^[a].

For `CCOC(=O)C[C@H](NC(=O)c1sc(Cl)c(Cl)c1Br)C(=O)OCC` [1.0551], the LogP (method [a]) was 4.17^[a].

With `Cc1c(C(=O)NC2(C(=O)OC3CCC3)CC2)sc(Cl)c1Br` [1.0590] the LogP (method [a]) was 3.81^[a].

In the case of `COC(=O)C1(NC(=O)c2sc(Cl)c(Br)c2Cl)CCC1` [1.1003], the LogP [2] is reported as 3.74^[a].

For `COC(=O)CC[C@H](NC(=O)c1sc(Cl)c(Cl)c1Br)C(=O)OC` [1.0549], the LogP (method [a]) was 3.41^[a].

With `COC(=O)CNC(=S)c1sc(Br)c(Br)c1Cl` [1.0852] the LogP (method [a]) was 4.07^[a].

With `CCOC(=O)C(CC(N)=O)NC(=O)c1sc(Cl)c(Br)c1C` (stereo not drawn) [1.0036] the LogP [3] was 2.25^[a].

For `O=C(NC1CCCCNC1=O)c1sc(Br)c(Br)c1F` (stereo not drawn) [I.0951], the LogP [1] was 2.68^[a].

For `CCOC(=O)CNC(=S)c1sc(Br)c(Br)c1F` [1.0999], the LogP [2] was 4.23^[a].

In the case of `O=C(O)CNC(=O)c1sc(Br)c(Br)c1F` [1.0227], the LogP (method [a]) is reported as 2.01^[a].

For `CCOC(=O)[C@H](CO)NC(=O)c1sc(C#N)c(Cl)c1C` [1.0833], the LogP (method [a]) was 2.07^[a].

For `O=C(CNC(=O)c1sc(Br)c(Br)c1F)OC1CC1` [1.0856], the LogP (method [a]) was 3.02^[a].

In the case of `CCOC(=O)CN(C(=O)c1sc(Cl)c(Br)c1Cl)C1CC1` [1.0936], the LogP [2] is reported as 3.80^[a].

For `CCOC(=O)C(NC(=O)c1sc(Cl)c(Cl)c1C#N)C(=O)OCC` [1.0774], the LogP (method marked [a]) was 3.40^[a].

In the case of `CCOC(=O)C1(NC(=O)c2cc(I)c(I)s2)CC1` [1.0468], the LogP [4] is reported as 2.98^[a].

With `CCOC(=O)c1sc(I)c(Cl)c1Cl` [II.056] the LogP [1] was 4.57^[a].

With `CCOC(=O)C(CCSC)NC(=O)c1cc(Cl)c(C#N)s1` (stereo not drawn) [1.0390] the LogP (method marked [a]) was 3.03^[a].

With `CCOC(=O)CCNC(=O)c1sc(Cl)c(Br)c1Br` [1.0209] the LogP (method [a]) was 3.57^[a].

For `CCOC(=O)CNC(=O)c1sc(Cl)c(C)c1Cl` [1.0893], the LogP (method [a]) was 3.07^[a].

With `CC[C@H](C)[C@H](NC(=O)c1sc(Br)c(Br)c1F)C(=O)OC` [I.0141] the LogP [1] was 4.37^[a].

With `N#CCNC(=O)c1sc(C(F)F)c(Br)c1Br` [1.0521] the LogP [4] was 2.45^[a].

For `CCOC(=O)CCNC(=O)c1sc(Br)c(Br)c1I` [1.0081], the LogP [3] was 3.48^[a].

With `O=C(O)c1sc(I)c(Cl)c1Cl` [II.057] the LogP [1] was 3.01^[a].

With `CCOC(=O)CNC(=O)c1cc(C#N)c(Cl)s1` [1.0379] the LogP (method marked [a]) was 2.08^[a].

For `O=C(CNC(=O)c1sc(Br)c(Br)c1F)OCC(F)(F)F` [1.1026], the LogP [2] was 3.40^[a].

For `N#CC1(NC(=O)c2sc(Br)c(Br)c2F)CCSCC1` [1.0871], the LogP (method [a]) was 3.40^[a].

With `CCSC(=O)C1(NC(=O)c2sc(Br)c(Br)c2I)CC1` [1.0139] the LogP (method [a]) was 3.96^[a].

For `COC(=O)C1(NC(=O)c2sc(C#N)c(Br)c2Cl)CCC1` [1.0565], the LogP (method [a]) was 2.98^[a].

With `O=C(O)C1(NC(=S)c2sc(Br)c(Br)c2I)CC1` [1.0173] the LogP (method [a]) was 3.09^[a].

In the case of `CCCOC(=O)C1(NC(=O)c2sc(Cl)c(Br)c2C)CC1` [1.0625], the LogP (method [a]) is reported as 3.62^[a].

With `N#CCNC(=O)c1sc(Br)c(Br)c1C(F)F` [1.0353] the LogP (method marked [a]) was 2.54^[a].

For `COC(=O)c1sc(C#N)c(Br)c1C` [II.051], the LogP [1] was 3.19^[a].

With `CCOC(=O)CN(C)C(=O)c1sc(Br)c(Br)c1F` [1.0167] the LogP (method [a]) was 3.09^[a].

With `NC(=S)C1(NC(=O)c2sc(Cl)c(Cl)c2Br)CC1` [1.0881] the LogP (method [a]) was 2.77^[a].

For `N#CC1(NC(=O)c2sc(Br)c(Br)c2F)CC1` [1.0115], the LogP [3] was 2.64^[a].

With `CCOC(=O)C1(NC(=O)c2sc(Br)c(Cl)c2Cl)CC1` [1.0197] the LogP (method [a]) was 3.47^[a].

For `COC(=O)[C@H](CC(=O)OC(C)(C)C)NC(=O)c1sc(Cl)c(Cl)c1Br` [1.0552], the LogP (method [a]) was 4.59^[a].

In the case of `COC(=O)C(Cc1ccccc1)NC(=O)C(CC(=O)O)NC(=O)c1sc(Cl)c(Cl)c1Br` (stereo not drawn) [I.0487], the LogP [1] is reported as 3.23^[a].

In the case of `N#Cc1sc(C(=O)O)c(Cl)c1Br` [II.087], the LogP [1] is reported as 1.55^[a].

For `CCOC(=O)CCNC(=O)c1sc(Br)c(Br)c1F` [1.0450], the LogP [4] was 3.11^[a].

In the case of `CCOC(=O)C(Cc1ccccc1)NC(=O)c1cc(Cl)c(C#N)s1` (stereo not drawn) [1.0391], the LogP (method marked [a]) is reported as 3.48^[a].

With `O=C(CNC(=O)c1sc(Br)c(Br)c1Cl)OC1CCCC1` [1.0988] the LogP [2] was 4.28^[a].

With `NC(=O)C1(NC(=O)c2cc(I)c(I)s2)CC1` [1.0475] the LogP [4] was 1.87^[a].

With `CNC(=O)CNC(=O)c1sc(Br)c(Br)c1F` [1.0737] the LogP (method marked [a]) was 1.81^[a].

In the case of `N#CC1(NC(=O)c2sc(Br)c(Br)c2F)CCC(C2CCCCC2)CC1` (stereo not drawn) [I.1012], the LogP [1] is reported as 6.13^[a].

With `CCOC(=O)CNC(=O)c1sc(Cl)c(Br)c1F` [1.0634] the LogP (method [a]) was 2.88^[a].

For `N#CC1(NC(=O)c2sc(Br)c(Br)c2F)CCCSC1` (stereo not drawn) [1.1056], the LogP [2] was 3.41^[a].

In the case of `CCOC(=O)CCNC(=O)c1sc(Cl)c(Cl)c1Br` [1.0084], the LogP [3] is reported as 3.50^[a].

With `CCOC(=O)CNC(=O)c1sc(Br)c(Cl)c1Br` [1.0781] the LogP (method marked [a]) was 3.40^[a].

In the case of `CCOC(=O)C1(NC(=O)c2sc(Br)c(Br)c2C(F)(F)F)CCC1` [1.0372], the LogP (method marked [a]) is reported as 3.67^[a].

For `CCOC(=O)CNC(=O)c1sc(C)c(Cl)c1F` [I.0793, ethyl N-[(4-chloro-3-fluoro-5-methyl-2-thienyl)carbonyl]glycinate], the chromatographic logP (reversed phase HPLC columns, value in preparation example, method not marked) was 2.54.

In the case of `CCOC(=O)CNC(=O)c1sc(C#N)c(Cl)c1C` [1.0303], the LogP (method marked [a]) is reported as 2.39^[a].

With `COC(=O)c1sc(Br)c(C#N)c1Cl` [II.021] the LogP [1] was 2.87^[a].

For `O=C(O)c1sc(Br)c(Cl)c1Br` [II.070], the LogP [1] was 2.41^[a].

For `O=C(NC1CCSC1=O)c1sc(Cl)c(Cl)c1Br` (stereo not drawn) [I.1006], the LogP [1] was 3.25^[a].

For `COC(=O)C(CC(F)F)NC(=O)c1sc(Cl)c(Cl)c1F` (stereo not drawn) [1.0349], the LogP (method marked [a]) was 3.19^[a].

With `COC(=O)C(CCSC(C)=O)NC(=O)c1sc(Br)c(Br)c1F` (stereo not drawn) [1.0553] the LogP (method [a]) was 3.13^[a].

In the case of `COC(=O)c1sc(C#N)c(Br)c1Br` [II.054], the LogP [1] is reported as 3.07^[a].

In the case of `COC(=O)C(C)(C)NC(=O)c1sc(C#N)c(Br)c1Br` [1.1053], the LogP [2] is reported as 3.34^[a].

For `CCOC(=O)C1(NC(=O)c2sc(Br)c(Br)c2C(F)F)CC1` [1.0341], the LogP (method marked [a]) was 3.20^[a].

In the case of `O=C(O)c1cc(F)c(Cl)s1` [II.037], the LogP [1] is reported as 1.89^[a].

In the case of `COC(=O)C(CC(F)F)NC(=O)c1sc(Br)c(Cl)c1C` (stereo not drawn) [1.0077], the LogP [3] is reported as 3.29^[a].

For `Cc1sc(C(=O)OCC(C)C)c(F)c1Br` [II.024], the LogP [1] was 4.77^[a].

For `Cc1c(C(=O)NC(C(=O)O)C2CC2)sc(C#N)c1Br` (stereo not drawn) [1.0286], the LogP (method marked [a]) was 2.19^[a].

With `CCOC(=O)C(Cc1ccccc1)NC(=O)c1sc(C#N)c(Cl)c1Cl` (stereo not drawn) [1.0577] the LogP (method [a]) was 4.11^[a].

For `O=C(CNC(=O)c1sc(Br)c(Br)c1Cl)OC1CCOCC1` [1.0883], the LogP (method [a]) was 3.14^[a].

In the case of `COC(=O)C(C)(Cc1ccccc1)NC(=O)c1sc(Br)c(Br)c1F` (stereo not drawn) [1.0954], the LogP [2] is reported as 4.64^[a].

With `CCOC(=O)C(CCSC)NC(=O)c1cc(Br)c(F)s1` (stereo not drawn) [1.0314] the LogP (method marked [a]) was 3.31^[a].

For `C#CCOC(=O)CNC(=O)c1sc(C#N)c(Br)c1C` [1.0992], the LogP [2] was 2.43^[a].

In the case of `CCOC(=O)C(CSC)NC(=O)c1sc(Br)c(Br)c1C#N` (stereo not drawn) [1.0755], the LogP (method marked [a]) is reported as 3.40^[a].

For `CCOC(=O)C(NC(=O)c1sc(Br)c(Cl)c1F)C(C)C` (stereo not drawn) [1.0429], the LogP [4] was 4.38^[a].
